PMC8587653 (Molecules, 2021)

Legend:
[1] = target: Acetylcholinesterase (E.C.3.1.1.7, from electric eel) (Electrophorus electricus, UniProt O42275); test: biochemical; type: biochemical; settings: for IC50: electric eel AChE, pH 7.7, 37 °C, triplicate, read-out: Acetylcholinesterase (AChE) IC50 ± SEM
[2] = target: butyrylcholinesterase (E.C. 3.1.1.8, from horse serum) (Equus caballus, UniProt P81908); test: In vitro butyrylcholinesterase inhibition assay (Ellman's method); type: biochemical; settings: for Butyrylcholinesterse (BChE) %inhibition: compounds with <50% inhibition
Sequence of butyrylcholinesterase (E.C. 3.1.1.8, from horse serum) (P81908 whole entry): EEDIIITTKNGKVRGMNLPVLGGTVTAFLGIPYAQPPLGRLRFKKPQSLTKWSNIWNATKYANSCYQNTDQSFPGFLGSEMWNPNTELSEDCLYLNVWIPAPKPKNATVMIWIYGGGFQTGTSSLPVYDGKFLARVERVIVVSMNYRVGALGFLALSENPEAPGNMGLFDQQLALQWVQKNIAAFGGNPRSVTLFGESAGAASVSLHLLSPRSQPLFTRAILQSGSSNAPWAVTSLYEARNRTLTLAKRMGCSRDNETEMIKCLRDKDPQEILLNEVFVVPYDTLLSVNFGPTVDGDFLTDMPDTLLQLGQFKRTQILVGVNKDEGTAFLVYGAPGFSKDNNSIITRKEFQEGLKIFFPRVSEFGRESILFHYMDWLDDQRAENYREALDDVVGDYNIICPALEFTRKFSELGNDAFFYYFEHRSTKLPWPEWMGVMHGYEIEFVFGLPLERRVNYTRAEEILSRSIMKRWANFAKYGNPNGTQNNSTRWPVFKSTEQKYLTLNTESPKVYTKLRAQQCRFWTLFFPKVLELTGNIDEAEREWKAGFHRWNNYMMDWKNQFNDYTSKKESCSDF

[3] = target: acetylcholinesterase (Electrophorus electricus, UniProt O42275); test: Kinetics studies, mechanism of inhibition (Lineweaver-Burk); type: biochemical, electric eel; settings: substrate acetylthiocholine iodide; Vmax not affected, Km increased
Sequence of acetylcholinesterase (O42275 24-633): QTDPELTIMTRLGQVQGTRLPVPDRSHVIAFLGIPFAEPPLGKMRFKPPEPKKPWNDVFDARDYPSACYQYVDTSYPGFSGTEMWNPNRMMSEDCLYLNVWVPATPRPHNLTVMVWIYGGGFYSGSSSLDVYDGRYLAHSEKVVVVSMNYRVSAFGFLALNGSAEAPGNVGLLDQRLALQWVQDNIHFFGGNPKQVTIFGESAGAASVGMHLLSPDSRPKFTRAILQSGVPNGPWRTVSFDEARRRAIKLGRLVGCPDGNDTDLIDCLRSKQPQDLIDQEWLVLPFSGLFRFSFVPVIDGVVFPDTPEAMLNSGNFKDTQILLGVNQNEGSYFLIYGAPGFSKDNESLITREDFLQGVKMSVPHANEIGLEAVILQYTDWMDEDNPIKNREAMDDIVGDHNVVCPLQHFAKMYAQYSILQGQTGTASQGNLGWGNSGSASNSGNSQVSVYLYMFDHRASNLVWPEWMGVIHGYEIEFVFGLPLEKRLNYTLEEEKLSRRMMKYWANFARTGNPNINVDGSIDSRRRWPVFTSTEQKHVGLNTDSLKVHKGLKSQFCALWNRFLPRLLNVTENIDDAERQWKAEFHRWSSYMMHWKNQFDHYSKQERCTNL
Method: Enzyme kinetics were used to determine the mechanism of acetylcholinesterase inhibition. Lineweaver-Burk graph ([…]) were used for the determination of the type of inhibition and analysis of effect of inhibitor on Vmax and Kₘ. The slope Km/Vmax of each line in the Lineweaver-Burk plot was plotted against different concentrations of substrate and chemicals to determine the value of Ki.
Kinetics studies were performed on 5b and 5d with different concentrations of compounds and substrate. Four concentrations of 1 mM compound 5b (0, 0.06, 0.12, 0.18 µM), compound 5d (0, 0.3, 0.6, 0.9 µM) and four concentrations of substrate (0, 0.5, 1.0, 1.5 and 2.0 mM showing 1/S as 0.0, 2.0, 1.0, 0.667 and 0.5, respectively) were made. Both compounds competes with substrate (acetylthiocholine iodide) for binding in the active site of acetylcholinesterase.
Michaelis-Menten kinetics experiments were used to determine the type of enzyme inhibition. […] For this purpose, the initial rates of the enzyme inhibition at four concentrations of substrate (0, 0.5, 1.0, 1.5, 2.0 mM) in the absence and presence of four different concentrations of compound 5b (0, 0.06, 0.12, 0.18 µM) and compound 5d (0, 0.3, 0.6, 0.9 µM) against acetylcholinesterase were measured.

Sequence of Acetylcholinesterase (E.C.3.1.1.7, from electric eel) (O42275 24-633): as above

## S=C(NCCN1CCOCC1)NN=Cc1cc2ccccc2nc1Cl [Compound 5a, 2-((2-Chloroquinolin-3-yl)methylene)-N-(2-morpholinoethyl)hydrazinecarbothioamide]
[1]
  IC50: 2.95 ± 0.24 µM
[2]
  Butyrylcholinesterse (BChE) %inhibition: 3.32%

## COc1ccc2nc(Cl)c(C=NNC(=S)NCCN3CCOCC3)cc2c1 [Compound 5b, 2-((2-Chloro-6-methoxyquinolin-3-yl)methylene)-N-(2-morpholinoethyl)hydrazinecarbothioamide]
[3]
  Mode of inhibition of acetylcholinesterase: competitive inhibition
[1]
  IC50: 0.12 ± 0.02 µM
[1]; ratio of IC50 values vs galantamine
  Potency against AChE relative to standard drug galantamine: 5 fold
[2]
  Butyrylcholinesterse (BChE) %inhibition: 8.12%

## COc1ccc2cc(C=NNC(=S)NCCN3CCOCC3)c(Cl)nc2c1 [Compound 5c, 2-((2-Chloro-7-methoxyquinolin-3-yl)methylene)-N-(2-morpholinoethyl)hydrazinecarbothioamide]
[1]
  IC50: 5.53 ± 0.11 µM
[2]
  Butyrylcholinesterse (BChE) %inhibition: 1.33%

## Cc1ccc2cc(C=NNC(=S)NCCN3CCOCC3)c(Cl)nc2c1 [Compound 5d, 2-((2-Chloro-7-methylquinolin-3-yl)methylene)-N-(2-morpholinoethyl)hydrazinecarbothioamide]
[3]
  Mode of inhibition of acetylcholinesterase: competitive inhibition
[1]
  IC50: 0.55 ± 0.01 µM
[2]
  Butyrylcholinesterse (BChE) %inhibition: 1.52%

## S=C(NCCN1CCOCC1)NN=Cc1cc2ccc(Cl)cc2nc1Cl [Compound 5e, 2-((2,7-Dichloroquinolin-3-yl)methylene)-N-(2-morpholinoethyl)hydrazinecarbothioamide]
[1]
  IC50: 10.5 ± 0.16 µM
[2]
  Butyrylcholinesterse (BChE) %inhibition: 1.88%

## S=C(NN=Cc1cc2ccccc2nc1Cl)Nc1ccccc1 [Compound 5f, 2-((2-Chloroquinolin-3-yl)methylene)-N-phenylhydrazinecarbothioamide]
[1]
  IC50: 23.2 ± 1.28 µM
[2]
  Butyrylcholinesterse (BChE) %inhibition: 4.47%

## COc1ccc2nc(Cl)c(C=NNC(=S)Nc3ccccc3)cc2c1 [Compound 5g, 2-((2-Chloro-6-methoxyquinolin-3-yl)methylene)-N-phenylhydrazinecarbothioamide]
[1]
  IC50: 34.2 ± 1.02 µM
[2]; horse serum BChE, pH 7.7, 37 °C, triplicate, read-out: Butyrylcholinesterse (BChE) IC50 ± SEM
  IC50: 11.3 ± 0.67 µM

## Cc1ccc2nc(Cl)c(C=NNC(=S)Nc3ccccc3)cc2c1 [Compound 5h, 2-((2-Chloro-6-methylquinolin-3-yl)methylene)-N-phenylhydrazinecarbothioamide]
[1]
  IC50: 49.3 ± 2.49 µM
[2]
  Butyrylcholinesterse (BChE) %inhibition: 32.6%

## COc1ccc2cc(C=NNC(=S)Nc3ccccc3)c(Cl)nc2c1 [Compound 5i, 2-((2-Chloro-7-methoxyquinolin-3-yl)methylene)-N-phenylhydrazinecarbothioamide]
[1]
  IC50: 60.9 ± 6.57 µM
[2]
  Butyrylcholinesterse (BChE) %inhibition: 24.0%

## Cc1ccc2cc(C=NNC(=S)Nc3ccccc3)c(Cl)nc2c1 [Compound 5j, 2-((2-Chloro-7-methylquinolin-3-yl)methylene)-N-phenylhydrazinecarbothioamide]
[1]
  IC50: 46.5 ± 3.12 µM
[2]
  Butyrylcholinesterse (BChE) %inhibition: 16.8%

## S=C(NN=Cc1cc2ccc(Cl)cc2nc1Cl)Nc1ccccc1 [Compound 5k, 2-((2,7-Dichloroquinolin-3-yl)methylene)-N-phenylhydrazinecarbothioamide]
[1]
  IC50: 47.1 ± 1.45 µM
[2]
  Butyrylcholinesterse (BChE) %inhibition: 20.3%
